The record followed here is patent US11090304B2 (Amgen Inc., priority 2018, dated 2021).

Like-named read-outs stand apart in the source and are kept apart here.

The target of test [1] is GDP-bound KRAS protein (aa 1-169), containing both G12C and C118A amino acid substitutions (Homo sapiens, UniProt P01116, C118A/G12C). The test can be described thus: Coupled nucleotide exchange assay (SOS-mediated, AlphaScreen). It is filed as biochemical. To be noted: 5 min compound pre-incubation. A general note: In Alpha technology, singlet oxygen from a donor bead excites a nearby acceptor bead.

The test system of test [2] is Phosphorylation of ERK1/2 in MIA PaCa-2 cells. The test can be described thus: Phospho-ERK1/2 MSD assay in MIA PaCa-2 cells. The format is cell-based. The settings on record: read-out: p-ERK IC50 (2 h; MIA PaCa-2), 2 h compound treatment. The essentials: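 In the procedure, cells were plated a day ahead at 25,000 per well. Next, a dilution series of compound in growth medium was added for 2 or 4 h. EGF (10 ng/mL) stimulation for 10 min preceded washing and RIPA lysis. Lysate phospho-ERK1/2 was read by MSD, with IC50 derived by 4-parameter logistic analysis.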

GDP-bound KRAS protein (aa 1-169), containing both G12C and C118A amino acid substitutions, sequence (P01116 1-169 isoform P01116-2 G12C/C118A): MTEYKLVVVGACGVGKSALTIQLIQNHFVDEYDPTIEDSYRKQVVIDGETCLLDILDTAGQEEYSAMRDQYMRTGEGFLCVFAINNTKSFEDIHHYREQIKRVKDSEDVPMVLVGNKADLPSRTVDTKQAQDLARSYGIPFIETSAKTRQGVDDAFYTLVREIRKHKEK

By IC50 is commonly meant the concentration that inhibits the measured activity by half. On to `C=CC(=O)N1CCN(c2nc(=O)n(-c3c(C)ccnc3C(C)C)c3nc(-c4c(N)cccc4F)c(Cl)cc23)[C@@H](C)C1` (atropisomer, axis not shown; (M)) [Example 73-1, (M)-7-(2-Amino-6-fluorophenyl)-6-chloro-1-(4-methyl-2-(2-propanyl)-3-pyridinyl)-4-((2S)-2-methyl-4-(2-propenoyl)-1-piperazinyl)pyrido[2,3-d]pyrimidin-2(1H)-one], for which the IC50 in test [1] (read-out: Coupled exchange IC50 (5 min)) is 12 nM; in test [2], 14 nM.
In the case of `C=CC(=O)N1CCN(c2nc(=O)n(-c3c(C)ccnc3CC)c3nc(-c4c(O)cccc4F)c(Cl)cc23)[C@@H](C)C1` (single isomer, unassigned) [Example 55-10-2], in test [1], the “Coupled exchange IC50 (5 min)” value was 0.266 | nda μM. Also, the half-inhibitory concentration (IC50) in test [2] came out at 344 nM.
As for `C=CC(=O)N1CCN(c2nc(=O)n(-c3nccnc3C3CC3)c3nc(-c4c(O)cccc4F)c(F)cc23)[C@@H](C)C1` [Example 59-6, 1-(3-cyclopropyl-2-pyrazinyl)-6-fluoro-7-(2-fluoro-6-hydroxyphenyl)-4-((2S)-2-methyl-4-(2-propenoyl)-1-piperazinyl)pyrido[2,3-d]pyrimidin-2(1H)-one], in test [1], the “Coupled exchange IC50 (5 min)” value was 0.932 | nda μM. Besides, the 50% inhibitory concentration (IC50) in test [2] (Homo sapiens, MIA PaCa-2, 2 h) was found to be 659 nM.
Consider `C=CC(=O)N1CCN(c2nc(=O)n(-c3c(OC)ncnc3OC)c3nc(-c4c(O)cccc4F)c(Cl)cc23)[C@@H](C)C1` [Example 55-3, 6-chloro-1-(4,6-dimethoxy-5-pyrimidinyl)-7-(2-fluoro-6-hydroxyphenyl)-4-((2S)-methyl-4-(2-propenoyl)-1-piperazinyl)pyrido[2,3-d]pyrimidin-2(1H)-one], for which the “Coupled exchange IC50 (5 min)” value in test [1] is listed as 0.966 | nda μM. In addition, in test [2] (Homo sapiens, MIA PaCa-2, 2 h), the IC50 was determined as 918 nM.
Consider `C=CC(=O)N1CCN(c2nc(=O)n(-c3c(C)cc(CN(C)C)cc3C(C)C)c3nc(-c4ccccc4F)c(Cl)cc23)[C@@H](C)C1` (single isomer, unassigned) [Example 80-1-1], for which, in test [1], the “Coupled exchange IC50 (5 min)” value was 0.044 | nda μM. Further, the concentration for half-maximal inhibition (IC50) in test [2] is 29 nM.
Consider `C=CC(=O)N1CCN(c2nc(=O)n(-c3c(C(C)C)ccnc3C)c3nc(-c4ccccc4F)c(F)cc23)[C@@H](C)C1` [Example 58-16, 6-fluoro-7-(2-fluorophenyl)-1-(2-methyl-4-(2-propanyl)-3-pyridinyl)-4-((2S)-2-methyl-4-(2-propenoyl)-1-piperazinyl)pyrido[2,3-d]pyrimidin-2(1H)-one], for which the “Coupled exchange IC50 (5 min)” value in test [1] is given as 0.553 | nda μM. Also, the half-maximal inhibitory concentration (IC50) in test [2] (Homo sapiens, MIA PaCa-2, 2 h) was found to be 556 nM.
Consider `C=CC(=O)N1CCN(c2nc(=O)n(-c3c(C(C)C)ncnc3C(C)C)c3nc(-c4c(O)cccc4F)c(F)cc23)[C@@H](C)C1` [Example 57-4, 1-(4,6-di(2-propanyl)-5-pyrimidinyl)-6-fluoro-7-(2-fluoro-6-hydroxyphenyl)-4-((2S)-2-methyl-4-(2-propenoyl)-1-piperazinyl)pyrido[2,3-d]pyrimidin-2(1H)-one], for which the “Coupled exchange IC50 (5 min)” value in test [1] is given as 0.1 | nda μM. Besides, in test [2] (Homo sapiens, MIA PaCa-2, 2 h), the half-maximal inhibitory concentration (IC50) was determined as 61 nM.
The matching figures for `C=CC(=O)N1[C@@H]2CCC[C@H]1CN(c1nc(=O)n(-c3c(C)ccnc3C(C)C)c3nc(-c4ccccc4F)c(Cl)cc13)C2` (single isomer, unassigned) [Example 78-2, (M)-6-chloro-7-(2-fluorophenyl)-1-(4-methyl-2-(2-propanyl)-3-pyridinyl)-4-(9-(2-propenoyl)-3,9-diazabicyclo[3.3.1]nonan-3-yl)pyrido[2,3-d]pyrimidin-2(1H)-one]: 0.436 | nda μM and 376 nM.
Regarding `C=CC(=O)N1CCN(c2nc(=O)n(-c3ccccc3C(C)C)c3nc(-c4cccnc4N)c(Cl)cc23)[C@@H](C)C1` [Example 54-96, 7-(2-amino-3-pyridinyl)-6-chloro-4-((2S)-2-methyl-4-(2-propenoyl)-1-piperazinyl)-1-(2-(2-propanyl)phenyl)pyrido [2,3-d]pyrimidin-2(1H)-one], in test [1], the “Coupled exchange IC50 (5 min)” value was 0.676 | nda μM. Moreover, the IC50 in test [2] (Homo sapiens, MIA PaCa-2, 2 h) worked out at 363 nM.
As for `C=CC(=O)N1CCN(c2nc(=O)n(-c3c(C)cccc3C3CC3)c3nc(-c4c(O)cccc4F)c(F)cc23)[C@@H](C)C1` [Example 58-13, 1-(2-cyclopropyl-6-methylphenyl)-6-fluoro-7-(2-fluoro-6-hydroxyphenyl)-4-((2S)-2-methyl-4-(2-propenoyl)-1-piperazinyl)pyrido[2,3-d]pyrimidin-2(1H)-one], in test [1], the “Coupled exchange IC50 (5 min)” value is reported as 0.809 | nda μM. Also, the IC50 in test [2] (Homo sapiens, MIA PaCa-2, 2 h) is 263 nM.
In the case of `C=CC(=O)N1CCN(c2nc(=O)n(-c3c(C(F)(F)F)ccnc3C(C)C)c3nc(-c4c(O)cccc4F)c(F)cc23)[C@@H](C)C1` (single isomer, unassigned) [Example 58-3-2], the “Coupled exchange IC50 (5 min)” value in test [1] is recorded as 0.485 | nda μM. In addition, in test [2], the IC50 was 867 nM.
On to `C=CC(=O)N1CCN(c2nc(=O)n(-c3c(CO)ccnc3C(C)C)c3nc(-c4ccccc4F)c(Cl)cc23)[C@@H](C)C1` (single isomer, unassigned) [Example 84-2], for which the “Coupled exchange IC50 (5 min)” value in test [1] is given as 0.058 | nda μM. Besides, in test [2] (Homo sapiens, MIA PaCa-2, 2 h), the IC50 came to 43 nM.
The matching figures for `C=CC(=O)N1CCN(c2nc(=O)n(-c3cn(Cc4ccccc4)nc3C3CC3)c3nc(-c4c(O)cccc4F)c(Cl)cc23)[C@@H](C)C1` [Example 55-20, 1-(1-benzyl-3-cyclopropyl-1H-pyrazol-4-yl)-6-chloro-7-(2-fluoro-6-hydroxyphenyl)-4-((2S)-2-methyl-4-(2-propenoyl)-1-piperazinyl)pyrido[2,3-d]pyrimidin-2(1H)-one]: 0.695 | nda μM and 2670 nM.
For `C=CC(=O)N1CCN(c2nc(=O)n(-c3c(C)ccnc3C(C)C)c3nc(-c4c(N)cccc4F)c(F)cc23)[C@@H](C)C1` (atropisomer, axis not shown; (M)) [Example 72-11, (M)-7-(2-amino-6-fluorophenyl)-6-fluoro-1-(4-methyl-2-(2-propanyl)-3-pyridinyl)-4-((2S)-2-methyl-4-(2-propenoyl)-1-piperazinyl)pyrido[2,3-d]pyrimidin-2(1H)-one], in that order: 0.039 | nda μM and 44 nM.
The matching figures for `C=CC(=O)N1CCN(c2nc(=O)n(-c3c(C(C)C)nc(OC)nc3C(C)C)c3nc(-c4ccccc4F)c(Cl)cc23)[C@@H](C)C1` [Example 55-37, 6-chloro-7-(2-fluorophenyl)-1-(2-methoxy-4,6-di(2-propanyl)-5-pyrimidinyl)-4-((2S)-2-methyl-4-(2-propenoyl)-1-piperazinyl)pyrido[2,3-d]pyrimidin-2(1H)-one]: 0.03 | nda μM and 57 nM.
Regarding `C=CC(=O)N1CCN(c2nc(=O)n(-c3c(C)cnn3C(C)C)c3nc(-c4ccc(F)cc4F)c(Cl)cc23)[C@@H](C)C1` [Example 54-71, 6-chloro-7-(2,4-difluorophenyl)-1-(4-methyl-1-(2-propanyl)-1H-pyrazol-5-yl)-4-((2S)-2-methyl-4-(2-propenoyl)-1-piperazinyl) pyrido[2,3-d]pyrimidin-2(1H)-one], the “Coupled exchange IC50 (5 min)” value in test [1] is on record as 0.174 | nda μM. Also, the IC50 in test [2] (Homo sapiens, MIA PaCa-2, 2 h) stood at 164 nM.
As to `C=CC(=O)N1CCN(c2nc(=O)n(-c3c(C)cccc3C(C)C)c3cc(-c4c(O)cccc4F)c(Cl)cc23)[C@@H](C)C1` [Example 106, 6-Chloro-7-(2-fluoro-6-hydroxyphenyl)-1-(2-methyl-6-(2-propanyl)phenyl)-4-((2S)-2-methyl-4-(2-propenoyl)-1-piperazinyl)-2(1H)-quinazolinone], in test [1], the “Coupled exchange IC50 (5 min)” value was 0.074 | nda μM. The IC50 in test [2] (Homo sapiens, MIA PaCa-2, 2 h) was 105 nM.
For the compound `C=CC(=O)N1CCN(c2nc(=O)n(-c3ccccc3C(C)C)c3nc(-c4c(F)cccc4C#N)c(Cl)cc23)[C@@H](C)C1` [Example 98, 2-(6-Chloro-4-((2S)-2-methyl-4-(2-propenoyl)-1-piperazinyl)-2-oxo-1-(2-(2-propanyl)phenyl)-1,2-dihydropyrido[2,3-d]pyrimidin-7-yl)-3-fluorobenzonitrile], the “Coupled exchange IC50 (5 min)” value in test [1] is listed as 0.27 | nda μM. The IC50 in test [2] (Homo sapiens, MIA PaCa-2, 2 h) was 207 nM.
For the compound `C=CC(=O)N1CCN(c2nc(=O)n(-c3ccccc3C(C)C)c3nc(C4=CCCCC4)c(Cl)cc23)[C@@H](C)C1` (single isomer, unassigned) [Example 54-75-1], in test [1], the “Coupled exchange IC50 (5 min)” value was 0.419 | nda μM. Further, the IC50 in test [2] (Homo sapiens, MIA PaCa-2, 2 h) is 853 nM.
As to `C=CC(=O)N1CCN(c2nc(=O)n(-c3c(C)ccnc3C(C)C)c3nc(-c4cc(O)ccc4F)c(F)cc23)[C@@H](C)C1` (single isomer, unassigned) [Example 58-5-2], in test [1], the “Coupled exchange IC50 (5 min)” value was 0.216 | nda μM. The concentration for half-maximal inhibition (IC50) in test [2] (Homo sapiens, MIA PaCa-2, 2 h) stood at 743 nM.
With `C=CC(=O)N1CCN(c2nc(=O)n(-c3c(C)cccc3C(C)C)c3nc(-c4ccccc4F)c(C)cc23)[C@@H](C)C1` (single isomer, unassigned) [Example 102-2], the “Coupled exchange IC50 (5 min)” value in test [1] was 0.182 | nda μM. In addition, the IC50 in test [2] (Homo sapiens, MIA PaCa-2, 2 h) came out at 211 nM.
The matching figures for `C=CC(=O)N1CCN(c2nc(=O)n(-c3c(C)ccnc3C(C)C)c3nc(-c4c(O)cccc4F)c(F)cc23)CC1` (single isomer, unassigned) [Example 75-4, (M)-6-fluoro-7-(2-fluoro-6-hydroxyphenyl)-1-(4-methyl-2-(2-propanyl)-3-pyridinyl)-4-(4-(2-propenoyl)-1-piperazinyl)pyrido[2,3-d]pyrimidin-2(1H)-one]: 0.552 | nda μM and 543 nM.
